Data taken from the supplement of paper PMC10307832.

Legend:
Test in all cases: relative viability (nuclei count vs DMSO), 5 days (fraction); higher = more cells survive
LCLC-103H = tested on: LCLC-103H
Procedure, shortened: (§1)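 Relative viability divides the nuclei count in treated wells by that in vehicle wells. Lung cancer cell lines were seeded in 1536-well plates, dosed by pin tool the next day, and fixed and stained after 5 days in one step with final 0.05% Triton X-100, 1% formaldehyde and 1 ug/ml Hoechst. Dosing was a single drug or a fixed anchor-drug dose plus five library-drug doses (not always all listed) in √10 steps, and values are medians of duplicate plates imaged at 4×.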

LXF-289 = tested on: LXF-289
Procedure, shortened: as §1

NCI-H1355 = tested on: NCI-H1355
Procedure, shortened: as §1

NCI-H1651 = tested on: NCI-H1651
Procedure, shortened: as §1

NCI-H1755 = tested on: NCI-H1755
Procedure, shortened: as §1

NCI-H1792 = tested on: NCI-H1792
Procedure, shortened: as §1

NCI-H1915 = tested on: NCI-H1915
Procedure, shortened: as §1

NCI-H2347 = tested on: NCI-H2347
Procedure, shortened: as §1

NCI-H3122 = tested on: NCI-H3122
Procedure, shortened: as §1

NCI-H322M = tested on: NCI-H322M
Procedure, shortened: as §1

NCI-H441 = tested on: NCI-H441
Procedure, shortened: as §1

NCI-H460 = tested on: NCI-H460
Procedure, shortened: as §1

NCI-H520 = tested on: NCI-H520
Procedure, shortened: as §1

NCI-H522 = tested on: NCI-H522
Procedure, shortened: as §1

NCI-H596 = tested on: NCI-H596
Procedure, shortened: as §1

NCI-H661 = tested on: NCI-H661
Procedure, shortened: as §1

NCI-H727 = tested on: NCI-H727
Procedure, shortened: as §1

PC-14 = tested on: PC-14
Procedure, shortened: as §1

RERF-LC-KJ = tested on: RERF-LC-KJ
Procedure, shortened: as §1

SK-MES-1 = tested on: SK-MES-1
Procedure, shortened: as §1

SW 900 = tested on: SW 900
Procedure, shortened: as §1

How did the relative viability (LCLC-103H; first compound 0.04 µM) turn out when `Cc1sc2c(c1C)C(c1ccc(Cl)cc1)=N[C@@H](CC(=O)OC(C)(C)C)c1nnc(C)n1-2` [JQ1] + CC(=O)Nc1cccc(-n2c(=O)n(C3CC3)c(=O)c3c(Nc4ccc(I)cc4F)n(C)c(=O)c(C)c32)c1 [Trametinib] (partner 0.02 µM) was run?
Its relative viability is 0.642.

And the relative viability (LCLC-103H; first compound 0.1265 µM)?
Its relative viability is 0.613.

What about the relative viability (LCLC-103H; first compound 0.4 µM) of the same molecule?
Its relative viability is 0.534.

And the relative viability (LCLC-103H; first compound 1.265 µM)?
The relative viability was 0.477.

What about the relative viability (LCLC-103H; first compound 4 µM) of the same molecule?
The relative viability was 0.426.

And the relative viability (LXF-289; first compound 0.04 µM)?
Its relative viability is 0.641.

What about the relative viability (LXF-289; first compound 0.1265 µM) of the same molecule?
The relative viability was 0.698.

What about the relative viability (LXF-289; first compound 0.4 µM) of the same molecule?
Its relative viability is 0.676.

What about the relative viability (LXF-289; first compound 1.265 µM) of the same molecule?
Its relative viability is 0.607.

And the relative viability (LXF-289; first compound 4 µM)?
The relative viability was 0.477.

What about the relative viability (NCI-H1355; first compound 0.04 µM) of the same molecule?
Its relative viability is 0.432.

What about the relative viability (NCI-H1355; first compound 0.1265 µM) of the same molecule?
The relative viability was 0.429.

What about the relative viability (NCI-H1355; first compound 0.4 µM) of the same molecule?
Its relative viability is 0.34.

What about the relative viability (NCI-H1355; first compound 1.265 µM) of the same molecule?
Its relative viability is 0.277.

What about the relative viability (NCI-H1355; first compound 4 µM) of the same molecule?
Its relative viability is 0.255.

And the relative viability (NCI-H1651; first compound 0.04 µM)?
The relative viability was 0.782.

What about the relative viability (NCI-H1651; first compound 0.1265 µM) of the same molecule?
The relative viability was 0.742.

What about the relative viability (NCI-H1651; first compound 0.4 µM) of the same molecule?
Its relative viability is 0.603.

What about the relative viability (NCI-H1651; first compound 1.265 µM) of the same molecule?
The relative viability was 0.496.

What about the relative viability (NCI-H1651; first compound 4 µM) of the same molecule?
The relative viability was 0.437.

And the relative viability (NCI-H1755; first compound 0.04 µM)?
Its relative viability is 0.796.

What about the relative viability (NCI-H1755; first compound 0.1265 µM) of the same molecule?
The relative viability was 0.809.

And the relative viability (NCI-H1755; first compound 0.4 µM)?
Its relative viability is 0.8.

And the relative viability (NCI-H1755; first compound 1.265 µM)?
The relative viability was 0.674.

What about the relative viability (NCI-H1755; first compound 4 µM) of the same molecule?
Its relative viability is 0.65.

And the relative viability (NCI-H1792; first compound 0.04 µM)?
The relative viability was 0.345.

What about the relative viability (NCI-H1792; first compound 0.1265 µM) of the same molecule?
The relative viability was 0.421.

And the relative viability (NCI-H1792; first compound 0.4 µM)?
The relative viability was 0.286.

And the relative viability (NCI-H1792; first compound 1.265 µM)?
Its relative viability is 0.191.

And the relative viability (NCI-H1792; first compound 4 µM)?
Its relative viability is 0.186.

And the relative viability (NCI-H1915; first compound 0.04 µM)?
Its relative viability is 0.281.

What about the relative viability (NCI-H1915; first compound 0.4 µM) of the same molecule?
The relative viability was 0.317.

What about the relative viability (NCI-H1915; first compound 1.265 µM) of the same molecule?
Its relative viability is 0.237.

What about the relative viability (NCI-H1915; first compound 4 µM) of the same molecule?
The relative viability was 0.2.

And the relative viability (NCI-H2347; first compound 0.04 µM)?
The relative viability was 0.275.

What about the relative viability (NCI-H2347; first compound 0.1265 µM) of the same molecule?
The relative viability was 0.294.

What about the relative viability (NCI-H2347; first compound 0.4 µM) of the same molecule?
Its relative viability is 0.276.

And the relative viability (NCI-H2347; first compound 1.265 µM)?
Its relative viability is 0.24.

What about the relative viability (NCI-H2347; first compound 4 µM) of the same molecule?
The relative viability was 0.258.

And the relative viability (NCI-H3122; first compound 0.04 µM)?
Its relative viability is 0.219.

And the relative viability (NCI-H3122; first compound 0.1265 µM)?
Its relative viability is 0.179.

What about the relative viability (NCI-H3122; first compound 0.4 µM) of the same molecule?
The relative viability was 0.322.

What about the relative viability (NCI-H3122; first compound 1.265 µM) of the same molecule?
The relative viability was 0.317.

What about the relative viability (NCI-H3122; first compound 4 µM) of the same molecule?
The relative viability was 0.304.

What about the relative viability (NCI-H322M; first compound 0.04 µM) of the same molecule?
The relative viability was 0.555.

And the relative viability (NCI-H322M; first compound 0.1265 µM)?
Its relative viability is 0.644.

What about the relative viability (NCI-H322M; first compound 0.4 µM) of the same molecule?
Its relative viability is 0.45.

And the relative viability (NCI-H322M; first compound 1.265 µM)?
The relative viability was 0.334.

And the relative viability (NCI-H322M; first compound 4 µM)?
Its relative viability is 0.539.

And the relative viability (NCI-H441; first compound 0.04 µM)?
Its relative viability is 0.476.

What about the relative viability (NCI-H441; first compound 0.1265 µM) of the same molecule?
Its relative viability is 0.377.

And the relative viability (NCI-H441; first compound 0.4 µM)?
The relative viability was 0.31.

What about the relative viability (NCI-H441; first compound 1.265 µM) of the same molecule?
The relative viability was 0.175.

And the relative viability (NCI-H441; first compound 4 µM)?
Its relative viability is 0.169.

And the relative viability (NCI-H460; first compound 0.04 µM)?
Its relative viability is 0.129.

What about the relative viability (NCI-H460; first compound 0.1265 µM) of the same molecule?
The relative viability was 0.0734.

What about the relative viability (NCI-H460; first compound 0.4 µM) of the same molecule?
Its relative viability is 0.0575.

And the relative viability (NCI-H460; first compound 1.265 µM)?
Its relative viability is 0.0314.

What about the relative viability (NCI-H460; first compound 4 µM) of the same molecule?
Its relative viability is 0.0297.

And the relative viability (NCI-H520; first compound 0.04 µM)?
Its relative viability is 0.565.

What about the relative viability (NCI-H520; first compound 0.1265 µM) of the same molecule?
The relative viability was 0.66.

What about the relative viability (NCI-H520; first compound 0.4 µM) of the same molecule?
Its relative viability is 0.386.

And the relative viability (NCI-H520; first compound 1.265 µM)?
Its relative viability is 0.391.

What about the relative viability (NCI-H520; first compound 4 µM) of the same molecule?
Its relative viability is 0.239.

What about the relative viability (NCI-H522; first compound 0.04 µM) of the same molecule?
Its relative viability is 0.767.

What about the relative viability (NCI-H522; first compound 0.1265 µM) of the same molecule?
Its relative viability is 0.631.

What about the relative viability (NCI-H522; first compound 0.4 µM) of the same molecule?
The relative viability was 0.485.

And the relative viability (NCI-H522; first compound 1.265 µM)?
The relative viability was 0.482.

And the relative viability (NCI-H522; first compound 4 µM)?
Its relative viability is 0.447.

What about the relative viability (NCI-H596; first compound 0.04 µM) of the same molecule?
The relative viability was 0.776.

What about the relative viability (NCI-H596; first compound 0.1265 µM) of the same molecule?
The relative viability was 0.683.

And the relative viability (NCI-H596; first compound 0.4 µM)?
The relative viability was 0.442.

What about the relative viability (NCI-H596; first compound 1.265 µM) of the same molecule?
Its relative viability is 0.338.

And the relative viability (NCI-H596; first compound 4 µM)?
Its relative viability is 0.31.

What about the relative viability (NCI-H661; first compound 0.04 µM) of the same molecule?
The relative viability was 0.554.

What about the relative viability (NCI-H661; first compound 0.1265 µM) of the same molecule?
Its relative viability is 0.451.

What about the relative viability (NCI-H661; first compound 0.4 µM) of the same molecule?
The relative viability was 0.508.

And the relative viability (NCI-H661; first compound 1.265 µM)?
The relative viability was 0.46.

What about the relative viability (NCI-H661; first compound 4 µM) of the same molecule?
Its relative viability is 0.441.

And the relative viability (NCI-H727; first compound 0.04 µM)?
The relative viability was 0.403.

What about the relative viability (NCI-H727; first compound 0.1265 µM) of the same molecule?
Its relative viability is 0.421.

What about the relative viability (NCI-H727; first compound 0.4 µM) of the same molecule?
The relative viability was 0.381.

And the relative viability (NCI-H727; first compound 1.265 µM)?
Its relative viability is 0.365.

What about the relative viability (NCI-H727; first compound 4 µM) of the same molecule?
Its relative viability is 0.401.

And the relative viability (PC-14; first compound 0.04 µM)?
The relative viability was 0.862.

And the relative viability (PC-14; first compound 0.1265 µM)?
Its relative viability is 0.174.

What about the relative viability (PC-14; first compound 0.4 µM) of the same molecule?
The relative viability was 0.515.

What about the relative viability (PC-14; first compound 1.265 µM) of the same molecule?
Its relative viability is 0.26.

And the relative viability (PC-14; first compound 4 µM)?
Its relative viability is 0.182.

And the relative viability (RERF-LC-KJ; first compound 0.04 µM)?
The relative viability was 0.907.

And the relative viability (RERF-LC-KJ; first compound 0.1265 µM)?
The relative viability was 0.803.

And the relative viability (RERF-LC-KJ; first compound 0.4 µM)?
Its relative viability is 0.817.

And the relative viability (RERF-LC-KJ; first compound 1.265 µM)?
Its relative viability is 0.532.

What about the relative viability (RERF-LC-KJ; first compound 4 µM) of the same molecule?
The relative viability was 0.449.

What about the relative viability (SK-MES-1; first compound 0.04 µM) of the same molecule?
The relative viability was 0.446.

What about the relative viability (SK-MES-1; first compound 0.1265 µM) of the same molecule?
The relative viability was 0.309.

And the relative viability (SK-MES-1; first compound 0.4 µM)?
The relative viability was 0.32.

And the relative viability (SK-MES-1; first compound 1.265 µM)?
Its relative viability is 0.24.

What about the relative viability (SK-MES-1; first compound 4 µM) of the same molecule?
The relative viability was 0.259.

And the relative viability (SW 900; first compound 0.04 µM)?
The relative viability was 0.804.

What about the relative viability (SW 900; first compound 0.1265 µM) of the same molecule?
The relative viability was 0.582.

And the relative viability (SW 900; first compound 0.4 µM)?
The relative viability was 0.532.

What about the relative viability (SW 900; first compound 1.265 µM) of the same molecule?
The relative viability was 0.205.

And the relative viability (SW 900; first compound 4 µM)?
Its relative viability is 0.204.
